The values that follow come from patent publication EP4745138A1, “THIO-GLUTARIMIDO ISOINDOLINONE DERIVATIVE, BIFUNCTIONAL PROTEIN DEGRADER CONTAINING SAME, AND USES THEREOF” (Gluetacs Therapeutics (Shanghai) Co., Ltd., priority 2023, dated 2025).

Read-outs that look alike come from different tables or passages of the source.

Test [1] deals with SW620. The experiment in a line: Tumor cell proliferation inhibition (CellTiter-Meiluncell Luminescent Cell Viability Assay). Format: cell-based. To be noted: Homo sapiens, 96 hours; for inhibition at 0.01 µM: SW-620, 10 nM, read-out: Inhibition Rate at 10 nM (%); for inhibition at 0.5 µM: SW-620, 500 nM, read-out: Inhibition Rate at 500 nM (%). The method, then:
(§1) The tumor cells used herein were cultured in a cell culture medium listed in table 3 at 37°C in an incubator with 5% CO2. Prior to experimentation, all cell lines used were correctly identified by STR profiling, and tested negative for mycoplasma contamination using a mycoplasma detection kit through routine screenings. Table 3. Tumor cells and cell culture medium used in the present disclosure
(§2) The IC50 values of the compounds of the present disclosure (including the compounds in Table 1, Table 2, and Examples) were determined using the CellTiter-Meiluncell Luminescent Cell Viability Assay Kit from Dalian Meilun Biotech Co., Ltd. The detailed procedure is as follows: Tumor cells were seeded in 96-well cell culture plates at the densities specified in Table 4. On the following day, the test compounds of the present disclosure were subjected to serial dilution. […] Subsequently, 0.5 µL of the test compound dilution was transferred into the 96-well plate containing the cells, with each well containing 100 µL of cell culture medium. […] Into the 96-well plate, the diluted test compounds and corresponding detection reagents were added, resulting in final test compound concentrations of 500 nM and 10 nM, respectively. The experimental procedure is described below using the diluted 2 µM test compound as an example.
(§3) 0.5 µL of the aforementioned diluted compound of the present disclosure (including the compounds in Table 1, Table 2, and Examples) was added to the seeded cells in 100 µL of medium, yielding a final test compound concentration of 10 nM. After the cells were treated with the compounds of the present disclosure for a specified period, the cell viability assay reagent was added to the culture medium according to the kit's instructions to determine cell viability. […] All controls were treated using the same procedure as the compounds of the present disclosure. […] Seeding protocol and treatment time for tumor cells

Test [2] deals with RPMI-8226. The test is described as above. The test is classed as cell-based. To be noted: Homo sapiens, 96 hours; for inhibition at 0.01 µM: 10 nM, read-out: Inhibition Rate at 10 nM (%); for inhibition at 0.5 µM: 500 nM, read-out: Inhibition Rate at 500 nM (%). The method, then: as §1, §2, §3
Test [3] concerns MM.1S. The description is as above. The test is classed as cell-based. To be noted: for inhibition at 0.01 µM / inhibition at 0.5 µM: Homo sapiens, MM1.S; for inhibition at 0.01 µM: read-out: Inhibition Rate at 10 nM (%); for inhibition at 0.5 µM: read-out: Inhibition Rate at 500 nM (%). The method, then: as §1, §2, §3
Test [4] concerns MV-4-11. Described as above. The test is classed as cell-based. To be noted: Homo sapiens, 96 hours; for inhibition at 0.01 µM: MV4-11, 10 nM, read-out: Inhibition Rate at 10 nM (%); for inhibition at 0.5 µM: MV4-11, 500 nM, read-out: Inhibition Rate at 500 nM (%). The method, then: as §1, §2, §3
The target in test [5] is T1, human Cereblon WT GST-tagged protein (Homo sapiens, UniProt Q96SW2).
T1 construct: purchased CISBIO 64BDCRBNPEH
The experiment in a line: CRBN-binding affinity, HTRF (CEREBLON BINDING kit). To be noted: for inhibition at 0.5 µM: read-out: Inhibition Rate at 0.5 µM (%); for inhibition at 2 µM: read-out: Inhibition Rate at 2 µM (%). Summed up: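 Compounds are serially diluted in diluent #9 (1X) and added at final 2 µM and 0.5 µM. GST-tagged wild-type Cereblon is added next, followed by premixed thalidomide-red reagent and anti-GST Eu antibody, and HTRF signal is measured.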

[6] abbreviates: Table I-8, SMARCA2/4 inhibitors.

T1 sequence (Q96SW2 whole entry): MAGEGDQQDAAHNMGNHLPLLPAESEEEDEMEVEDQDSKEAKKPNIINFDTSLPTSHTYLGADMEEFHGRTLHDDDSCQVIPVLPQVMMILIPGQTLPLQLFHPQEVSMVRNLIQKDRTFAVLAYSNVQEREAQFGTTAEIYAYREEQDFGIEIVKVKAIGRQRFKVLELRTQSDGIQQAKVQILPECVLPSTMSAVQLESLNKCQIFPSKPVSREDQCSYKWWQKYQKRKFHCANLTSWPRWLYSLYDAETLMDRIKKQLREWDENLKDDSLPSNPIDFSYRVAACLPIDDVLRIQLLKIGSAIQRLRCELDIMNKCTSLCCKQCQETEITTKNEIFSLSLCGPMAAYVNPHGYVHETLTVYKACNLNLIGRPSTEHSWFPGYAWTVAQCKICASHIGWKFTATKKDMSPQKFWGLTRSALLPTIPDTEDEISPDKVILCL

In the case of `CC1(C)CCC(CN2CCN(c3ccc(C(=O)NS(=O)(=O)c4ccc(NCC5CCOCC5)c([N+](=O)[O-])c4)c(Oc4cnc5[nH]ccc5c4)c3)CC2)=C(c2ccc(Cl)cc2)C1` [ABT-199, Venetoclax, reference compound], in test [1] (Table I-15, BCL-2 inhibitors), the inhibition at 0.01 µM was 5 to 10% and the inhibition at 0.5 µM was 5 to 10%.

Take `CC(C)CCN1c2nc(Nc3cc(F)c(O)c(F)c3)ncc2N(C)C(=O)C1C` (stereo not shown) [BI-D1870, reference compound]: the inhibition at 0.01 µM in test [2] (Table I-11, RSK inhibitors) is 10 to 20%; in test [3] (96 h), 114%; in test [4] (Table I-11, RSK inhibitors), 0 to 5%. Further, the inhibition at 0.5 µM lay in the range of 10 to 20% in test [2] (Table I-11, RSK inhibitors); 20 to 30% in test [3] (96 h); 20 to 30% in test [4] (Table I-11, RSK inhibitors).

Turning to `CNC(=O)c1ccc(Nc2ncc(C(F)(F)F)c(NCc3nccnc3N(C)S(C)(=O)=O)n2)cc1` [Defactinib, reference compound], the inhibition at 0.01 µM in test [3] (MM.1S, 10 nM, 96 hours, Table I-12, FAK inhibitors) lay in the range of 10 to 20%; in test [1] (Table I-12, FAK inhibitors) it was 0 to 5%; in test [4] (Table I-12, FAK inhibitors), 0 to 5%. Further, the inhibition at 0.5 µM lay within 5 to 10% in test [3] (MM.1S, 500 nM, 96 hours, Table I-12, FAK inhibitors); 5 to 10% in test [1] (Table I-12, FAK inhibitors); 50 to 60% in test [4] (Table I-12, FAK inhibitors).

For `Cc1cc(S(=O)(=O)N2CCN(Cc3ccc4c(c3)CN(C3CCC(=O)NC3=O)C4=S)CC2)ccc1Nc1ncc(Br)c(Nc2cccc(F)c2C(N)=O)n1` (stereo not shown) [GT-08714, 2-((5-bromo-2-((4-((4-((2-(2,6-dioxopiperidin-3-yl)-1-thioxoisoindolin-5-yl)methyl)piperazin-1-yl)sulfonyl)-2-methylphenyl)amino)pyrimidin-4-yl)amino)-6-fluorobenzamide], the inhibition at 0.01 µM lay in the range of 30 to 40% in test [2] (setting [6]) and 30 to 40% in test [3] (MM.1S, 10 nM, 96 hours, Table I-8, SMARCA2/4 inhibitors). Besides, the inhibition at 0.5 µM in test [2] (setting [6]) was in the range of 40 to 50%; in test [3] (MM.1S, 500 nM, 96 hours, Table I-8, SMARCA2/4 inhibitors) it was 50 to 60%; in test [5] it was 53 to 60%. Besides, the inhibition at 2 µM in test [5] fell in the range of 60 to 80%.

On to `Nc1nnc(-c2ccccc2O)cc1N1CCN(Cc2cccc3c2CN(C2CCC(=O)NC2=O)C3=S)CC1` (stereo not shown) [GT-08786, 3-(4-((4-(3-amino-6-(2-hydroxyphenyl)pyridazin-4-yl)piperazin-1-yl)methyl)-1-thioxoisoindolin-2-yl)piperidine-2,6-dione], for which, in test [4] (setting [6]), the inhibition at 0.01 µM is 10 to 15% and the inhibition at 0.5 µM was in the range of 40 to 50%. Further, in test [5], the inhibition at 0.5 µM fell in the range of 53 to 60% and the inhibition at 2 µM was in the range of 80 to 100%.

Regarding `Cc1ccsc1C(=O)n1nc(Nc2ccc(S(=O)(=O)N3CCN(Cc4cccc5c4CN(C4CCC(=O)NC4=O)C5=S)CC3)cc2)nc1N` (stereo not shown) [GT-08797, 3-(4-((4-((4-((5-amino-1-(3-methylthiophene-2-carbonyl)-1H-1,2,4-triazol-3-yl)amino)phenyl)sulfony 1)piperazin-1-yl)methyl)-1-thioxoisoindolin-2-yl)piperidine-2,6-dione], in test [4] (Table I-13, CDK2 inhibitors), the inhibition at 0.01 µM was 5 to 10% and the inhibition at 0.5 µM lay within 60 to 70%. Also, in test [5], the inhibition at 0.5 µM lay in the range of 40 to 53% and the inhibition at 2 µM lay within 53 to 60%.

For the compound `CC1(C)CCC(c2ccc(Cl)cc2)=C(CN2CCN(c3ccc(C(=O)NS(=O)(=O)c4ccc(N[C@H](CCN5CCN(Cc6ccc7c(c6)CN(C6CCC(=O)NC6=O)C7=S)CC5)CSc5ccccc5)c(S(=O)(=O)C(F)(F)F)c4)cc3)CC2)C1` (stereo partly drawn) [GT-09415, 4-(4-((4'-chloro-4,4-dimethyl-3,4,5,6-tetrahydro-[1,1'-biphenyl]-2-yl)methyl)piperazin-1-yl)-N-((4-(((2R)-4-(4-((2-(2,6-dioxopiperidin-3-yl)-1-thioxoisoindolin-5-yl)methyl)piperazin-1-yl)-1-(phenylthio)butan-2-yl)amino)-3-((trifluoromethyl)sulfonyl)phenyl)sulfonyl)benzamide], in test [1] (Table I-15, BCL-2 inhibitors), the inhibition at 0.01 µM was in the range of 30 to 40% and the inhibition at 0.5 µM is 80 to 100%. Besides, in test [5], the inhibition at 0.5 µM lay within 53 to 60% and the inhibition at 2 µM was 80 to 100%.

Take `O=C1CCC(N2Cc3c(CN4CCN(c5ccc(-c6cc(F)c7c(c6)C(=O)N(C(C(=O)Nc6nccs6)c6ncn8c6CCC8)C7)cc5)CC4)cccc3C2=S)C(=O)N1` (stereo not shown) [GT-09429, 2-(6,7-dihydro-5H-pyrrolo[1,2-c]imidazol-1-yl)-2-(6-(4-(4-((2-(2,6-dioxopiperidin-3-yl)-1-thioxoisoindolin-4-yl)methyl)piperazin-1-yl)phenyl)-4-fluoro-1-oxoisoindolin-2-yl)-N-(thiazol-2-yl)acetamide]: in test [1] (Table I-3, EGFR inhibitors), the inhibition at 0.01 µM was in the range of 10 to 20% and the inhibition at 0.5 µM is 70 to 80%.

On to `Nc1nnc(-c2ccccc2O)cc1N1CCNCC1` [GTC00645], for which the inhibition at 0.01 µM was -5 to 0% in test [2] (setting [6]), 15 to 20% in test [3] (96 h) and 10 to 15% in test [4] (setting [6]). Besides, the inhibition at 0.5 µM was -5 to 0% in test [2] (setting [6]), 15 to 20% in test [3] (96 h) and 10 to 15% in test [4] (setting [6]).

On to `Nc1cccc2c1CN(C1CCC(=O)NC1=O)C2=O` (stereo not shown) [Lenalidomide, lenalidomide, reference compound], for which, in test [3] (96 h), the inhibition at 0.5 µM lay in the range of 30 to 35%. Moreover, the “Inhibition Rate at 10 nM (%)” value in test [3] (MM.1S, 10 nM, 96 hours, Table I-16, compounds of Formula (II)) is reported as “ln2”.

As to `CN(C)C(=O)c1cc2cnc(Nc3ccc(N4CCNCC4)cn3)nc2n1C1CCCC1` [Ribociclib, reference compound], the inhibition at 0.01 µM in test [3] (MM.1S, 10 nM, 96 hours, Table I-9, CDK4/6 inhibitors) was 10 to 20%; in test [4] (Table I-9, CDK4/6 inhibitors), 5 to 10%. The inhibition at 0.5 µM fell in the range of 10 to 20% in test [3] (MM.1S, 500 nM, 96 hours, Table I-9, CDK4/6 inhibitors) and 20 to 30% in test [4] (Table I-9, CDK4/6 inhibitors).

As usually defined, the inhibition is the change of the read-out against control, counted positive when it falls.
